Assay [1] has as its target T1, DR2a (DRA*0101/DRB5*0101) (Homo sapiens, UniProt P01903+Q30154).
T1 construct: DRA*01011-181LZFos; DRB5*01011-190LZJunBSP; made in house
In words: Competitive LOCI peptide-MHC-II binding assay, DR2a. Conditions: pH 6-7.5, 48 h 18°C, read-out: DR2a Komp IC50.

Assay [2] deals with T1, DR2a (DRA*0101/DRB5*0101). The assay is described as follows: Direct LOCI peptide-MHC-II binding assay, DR2a. Conditions: read-out: DR2a pH6 affinity.
The target in assay [3] is T2, DR3 (DRA*0101/DRB1*0301) (Homo sapiens, UniProt P01903+P01911, A100K/A102G/A103R/A169T/F55Y/I96L/K41T/L162R/M171V/P40S/Q125H/Q178H/Q39Y/R42S/S66N/T106N/T262R/W38E/Y61H).
T2 construct: DRA*01011-181LZFos; DRB1*03011-190LZJunBSP; made in house
In words: Direct LOCI peptide-MHC-II binding assay, DR3. Conditions: read-out: DR3 affinity.

In assay [4] the target is T3, DR4 (DRA*0101/DRB1*0401) (Homo sapiens, UniProt P01903+P01911, A100K/A169T/F76Y/I96L/K127E/L162R/M171V/N62H/P40V/Q125Y/R42H/S133A/S149N/S66Y/V115G/V209L/W38E).
T3 construct: DRA*01011-181LZFos; DRB1*04011-190LZJunBSP; made in house
In words: Direct LOCI peptide-MHC-II binding assay, DR4. As to conditions: read-out: DR4 affinity.

The target of assay [5] is T4, DRB1*0813 (DRA*0101/DRB1*0813) (Homo sapiens, UniProt P01903+P01911, A100R/A103L/A169T/F76Y/H45Y/I96L/K41T/L162R/M171V/P40S/Q125H/Q178H/Q39Y/Q99D/R218S/R42G/S66Y/V115G/W38E).
T4 construct: DRA*01011-181LZFos; DRB1*08131-190LZJunBSP; made in house
In words: Direct LOCI peptide-MHC-II binding assay, DRB1*0813. Conditions: read-out: DRB1*0813 affinity.

The target in assay [6] is T5, DRB3*0301 (DRA*0101/DRB3*0301) (Homo sapiens, UniProt P01903+P79483, A169T/A212P/D57E/G115V/L67V/Q178H/R103Q/R40L/Y55F).
T5 construct: DRA*01011-181LZFos; DRB3*03011-190LZJunBSP; made in house
The assay is described as follows: Direct LOCI peptide-MHC-II binding assay, DRB3*0301. Conditions: read-out: DRB3*0301 affinity.

For assay [7], the target named is DP401 (DPA1*0103/DPB1*0401) (Homo sapiens, UniProt P04440+P20036). In words: Direct LOCI peptide-MHC-II binding assay, DP401. As to conditions: read-out: DP401 affinity.
Assay [8] concerns the target DR1 (DRA*0101/DRB1*0101) (Homo sapiens, UniProt P01903+P01911, A100R/D57E/F55L/F60I/F76Y/I96L/L162R/M171V/P40L/Q125E/R42F/V115G/Y59C). In words: Competitive peptide-HLA-DR1 binding assay, radioactive spun column.
Assay [9] deals with T6, DR2 (DR2a) (Homo sapiens, UniProt P01903+Q30154).
T6 construct: DR2a: DRA*0101_1–181/DRB5*0101_1–190; made in house
The assay is described as follows: ELISA-based peptide-MHC class II binding assay, DR2. A general note: In an ELISA, binding on a coated surface is turned into a signal by an enzyme label.

The target of assay [10] is T7, DR4 (Homo sapiens, UniProt P01903+P01911).
T7 construct: made in house
The assay is described as follows: ELISA-based peptide-MHC class II binding assay, DR4.

Assay [11] addresses T8, I-E^d (Mus musculus, UniProt P01904+P01915).
T8 construct: I-E^dA1-191LZFos; I-E^dB1-198LZJunBSP; made in house
In words: Direct LOCI peptide-MHC-II binding assay, I-E^d. As to conditions: 48 h 18°C; read-out: I-E^D affinity.

Assay [12] concerns the target DR1 (Homo sapiens, UniProt P01903+P01911, A100R/D57E/F55L/F60I/F76Y/I96L/L162R/M171V/P40L/Q125E/R42F/V115G/Y59C). The assay is described as follows: biochemical. The assay is classed as binding.

pEC50, pIC50, pKd: −log10 of the molar value. Like-named read-outs stand apart in the source and are kept apart here. Where no end group is shown, it is not given here. Some results are limits rather than exact numbers.

As for `CSCC[C@H](NC(=O)[C@@H]1CCCN1C(=O)[C@H](CC(C)C)NC(=O)[C@H](C)NC(=O)[C@H](CCC(N)=O)NC(=O)[C@H](CCSC)NC(=O)[C@H](CC(C)C)NC(=O)[C@H](CC(C)C)NC(=O)[C@@H]1CCCN1C(=O)[C@@H](NC(=O)[C@H](C)NC(=O)[C@H](CCSC)NC(=O)[C@H](CCCNC(=N)N)NC(=O)[C@H](CCSC)NC(=O)[C@H](CCCCN)NC(=O)[C@H](CO)NC(=O)[C@@H](NC(=O)[C@@H]1CCCN1C(=O)[C@H](CCCCN)NC(=O)[C@@H]1CCCN1C(=O)[C@@H]1CCCN1C(=O)[C@H](CCCCN)NC(=O)[C@@H]1CCCN1C(=O)[C@H](CC(C)C)NC(=O)[C@@H](N)Cc1ccc(O)cc1)C(C)C)[C@@H](C)O)C(=O)O` [CLIP], the pIC50 (as a rule, the negative decadic logarithm of the IC50, by convention in mol/L) in assay [1] (competitive LOCI, 4 nM biotin-PEG-HA306–318 agonist, β chain without biotin, α/β 13/5 nM, L243, average of 2–4 measurements) was 9.00; in assay [8] (competition with 3 nM 125I labelled (Y)HA306–318, 80 nM DR1 α and β chain, 24 h, spun column, some ligand depletion expected, read-out: IC50), 7.40. Also, the pKd was 9.00 in [2]; 9.00 in assay [3]; 8.70 in assay [4]; 8.70 in assay [5]; 9.00 in [6]; 8.40 in assay [7]. The EC50 (commonly the concentration giving half of the maximal effect) in assay [9] (ELISA, L243 detection, α/β 31 and 1 nM, refolding buffer pH 8, 24 h 18°C, peptide concentration in nM per legend, read-out: EC50 DR2) turned out to be 0.7 nM; in [10] (ELISA, L243 detection, α/β 31 and 1 nM, refolding buffer pH 8, 24 h 18°C, peptide concentration in nM per legend, read-out: EC50 DR4), 9.7 nM.

Take YKYVKQNTLKLAT [HA306-318]: the pIC50 in [1] was 8.70; in assay [8] it was 7.47. Moreover, the pKd was 8.00 in assay [2] (pH 6, 48 h 18°C); 7.89 in assay [3] (pH 6-7, 48 h 18°C); 8.10 in [4] (pH 6-7.5, 48 h 18°C); 7.96 in [5] (pH 6-7.5, 48 h 18°C); 8.40 in [6] (pH 7, 48 h 18°C); under 5.30 in assay [7] (pH 7, 48 h 18°C). In assay [11], the pKd was 7.60. Besides, the pEC50 (commonly −log10 of the EC50, conventionally taken in molar units) in assay [12] was 8.66; in assay [9], 8.92; in assay [10] it was 7.37.

(Values after PMC2690590, “Functional recombinant MHC class II molecules and high-throughput peptide-binding assays” (Immunome Research, 2009).)
